Patent US20040028734A1, “Use of anti-muscarinic agents and calcium channel blockers in combination” (priority 2000, published 2004)
Read-outs that look alike come from different tables or passages of the source. Blank lines part the entries; values can stand above or below the molecule they belong to.

Experiments:
[1] = test system: Guinea pig tracheal strip preparations; test: tissue or blood; details: for % Relaxation: % maximal of carbachol-induced tone, DRC to verapamil
Experimental: Again, guinea pig tracheal strip preparations were pre-contracted with 5×10^−6 M carbachol for 10 minutes before incubation with the pre-treatment drug. The relaxation (% maximal of carbachol-induced tone) induced by the pre-treatment is shown in FIG. 2, for the following groups.

T lymphocytes = details: cited from earlier work
[2] = clinical level, compared with ipratropium; cited from earlier work
[3] = test system: Guinea pig tracheal strip preparations; test: tissue or blood; details: Cavia porcellus, 5 min
Experimental: Guinea pig tracheal strip preparations were pre-contracted with 5×10^−6 M carbachol for 10 minutes, to induce tone, before incubation with drug. […] Relaxation is expressed as % maximal relaxation induced by 5×10^−4 M papaverine after completion of concentration-response curves. […]

[4] = Frey's syndrome, single dermal application; cited from earlier work

Compound: COc1ccc(CCN(C)CCCC(C#N)(c2ccc(OC)c(OC)c2)C(C)C)cc1OC (centres unmarked) [verapamil]
EC50 ([1]; Cavia porcellus): 5000 nM

Compound: CN1[C@@H]2CC[C@H]1C[C@@H](OC(=O)C(CO)c1ccccc1)C2 (some centres unmarked) [atropine, Atropine]
effect on acetylcholine-mediated enhanced T lymphocyte proliferation (T lymphocytes): abolishes this effect completely

EC50 [3]: 9.23 nM
EC50 ([3]; read-out: -Log EC50 (converted)): 9.12 nM
Compound: C[N+]1(C)CCC(OC(=O)C(O)(c2ccccc2)C2CCCC2)C1 (centres unmarked) [glycopyrrolate]
duration of action in muscarinic antagonism [2]: longer duration of action in muscarinic antagonism than ipratropium
duration of action [4]: two day
% Relaxation ([1]; Group B, pre-treatment 4 × 10^−9 M): 6.5 ± 0.8%
% Relaxation ([1]; Group C, pre-treatment 4 × 10^−10 M): −0.7 ± 1.4%
